For orientation: IC50 means the point on the concentration scale where inhibition reaches its midpoint.

MetAP-2, sequence (P50579 whole entry, species assumed): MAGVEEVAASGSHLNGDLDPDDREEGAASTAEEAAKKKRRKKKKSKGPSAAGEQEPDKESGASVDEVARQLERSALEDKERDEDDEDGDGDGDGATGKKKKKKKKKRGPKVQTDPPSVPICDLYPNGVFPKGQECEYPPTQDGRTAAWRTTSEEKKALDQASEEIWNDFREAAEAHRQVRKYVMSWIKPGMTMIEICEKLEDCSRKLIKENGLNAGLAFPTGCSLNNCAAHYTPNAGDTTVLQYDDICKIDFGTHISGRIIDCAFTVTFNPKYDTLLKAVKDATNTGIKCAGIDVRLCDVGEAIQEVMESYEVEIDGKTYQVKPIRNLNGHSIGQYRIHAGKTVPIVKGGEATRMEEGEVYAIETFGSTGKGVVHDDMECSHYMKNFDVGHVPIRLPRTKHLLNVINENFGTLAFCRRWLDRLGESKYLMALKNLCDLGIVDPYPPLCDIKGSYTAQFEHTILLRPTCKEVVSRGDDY

For the assay, the target named is MetAP-2 (Homo sapiens, UniProt P50579). The experiment in a line: MetAP-2 activity measurement (coupled enzymatic reactions, substrate Met-Arg-Ser). The settings on record: Inhibition of MetAP-2; read-out: IC50 enzyme. Type of assay: biochemical. The procedure:
MetAP-2 Activity Measurement
The MetAP-2 activity is determined by coupling enzymatic reactions. The tripeptide Met-Arg-Ser (MAS) is employed as substrate. The methionine liberated is firstly converted into Metox and H2O2 by L-aminooxidase (AAO).
MetAP-2 activity can be recorded continuously as kinetics. The reaction scheme illustrates that one mol of dianisidineox is formed per mol of methionene. The MetAP-2 enzyme activity can therefore be calculated directly as Δ absorption per time unit. […] of the MetAP-2 activity (mol of Met/time unit) is possible with the aid of the dianisidineox extinction coefficient.
The change in extinction per time unit is depicted graphically and a slope calculation is carried out in the visually linear region of the reaction.
Turning to `O=C(NCc1cc(C(F)(F)F)cc(C(F)(F)F)c1)[C@@]1(O)CCN(c2ccccc2)C1=O` [A165], the IC50 is over 10 µM. The value for `O=C(NC1COc2ccccc2C1)[C@@]1(O)CCN(c2ccccc2)C1=O` (stereo partly drawn) [A320] was 0.01 to 1 µM; that for `O=C(NCc1c(F)ccc(Cl)c1F)[C@@]1(O)CCN(c2ccccc2)C1=O` [A21] was 0.01 to 1 µM; that for `CCc1nnn(CCNC(=O)[C@@]2(O)CCN(c3ccccc3)C2=O)n1` [A3] was 1 to 10 µM. The value for `O=C(NCc1cc(F)cc(C(F)(F)F)c1)[C@@]1(O)CCN(c2ccccc2)C1=O` [A164] was 0.01 to 1 µM.

On to `O=C(NCc1cc(Cl)ccc1F)[C@@]1(O)CCN(c2ccccc2)C1=O` [A49], for which the concentration for half-maximal inhibition (IC50) lay within 0.01 to 1 µM. The value for `O=C(NCc1cccc(OC(F)F)c1)[C@@]1(O)CCN(c2ccccc2)C1=O` [A6] was 1 to 10 µM. The value for `O=C(NCc1ccc(C(F)(F)F)cc1)[C@@]1(O)CCN(c2ccccc2)C1=O` [A333] was over 10 µM; that for `O=C(NCCc1cccs1)[C@]1(O)CCN(c2ccc(F)cc2)C1=O` [A78] was 1 to 10 µM; that for `O=C(N1CCOCC1)[C@@]1(O)CCN(c2ccccc2)C1=O` [A300] was over 10 µM. The value for `O=C(NCc1cccc(Cl)c1F)[C@@]1(O)CCN(c2cccc(Cl)c2)C1=O` [A57] was 0.01 to 1 µM; that for `C#CC(NC(=O)[C@@]1(O)CCN(c2ccccc2)C1=O)c1ccccc1` (stereo partly drawn) [A288] was 0.01 to 1 µM. `O=C(NCc1cccc(Cl)c1F)[C@]1(O)CCN(c2ccc(F)cc2)C1=O` [A67]: the concentration for half-maximal inhibition (IC50) was 1 to 10 µM. In the case of `COCCN1CC[C@](O)(C(=O)NCc2cc(F)cc(F)c2)C1=O` [A171], the IC50 is 1 to 10 µM. In the case of `N#Cc1cccc(CNC(=O)[C@@]2(O)CCN(c3ccccc3)C2=O)c1` [A215], the IC50 was in the range of 0.01 to 1 µM. For `CCCOCCNC(=O)[C@@]1(O)CCN(c2ccccc2)C1=O` [A329], the IC50 was 1 to 10 µM.

Take `O=C(NCc1cccc(Br)c1)[C@]1(O)CCN(c2ccc3ccccc3c2)C1=O` [A70]: the IC50 was over 10 µM. For `Cn1cc(N2CC[C@](O)(C(=O)NCc3cccc(Cl)c3F)C2=O)cn1` [A170], the IC50 lay within 0.01 to 1 µM. Turning to `Cc1nnc(-c2ccc(N3CC[C@](O)(C(=O)NCc4cc(F)cc(Cl)c4)C3=O)cc2)o1` [A267], the IC50 was in the range of 0.01 to 1 µM. With `CC(C)CCNC(=O)C1(O)CCN(c2ccccc2)C1=O` (stereo not drawn) [A63], the IC50 was in the range of 0.01 to 1 µM. The value for `O=C(NCc1cccc(Br)c1)[C@@]1(O)CCN(c2ccc(Br)cc2)C1=O` [A29] was 0.01 to 1 µM. For the compound `O=C(NCc1ccc(F)c(Cl)c1)[C@@]1(O)CCN(c2ccccc2)C1=O` [A47], the IC50 was 0.01 to 1 µM.

Consider `O=C(NCc1ccccc1C(F)(F)F)[C@@]1(O)CCN(c2ccccc2)C1=O` [A302], for which the IC50 is 0.01 to 1 µM. The value for `CC(C)OCCCNC(=O)[C@@]1(O)CCN(c2ccccc2)C1=O` [A301] was 1 to 10 µM; that for `O=C(NCc1cc(C(F)(F)F)cc(C(F)(F)F)c1)[C@@]1(O)CCN(c2ccc(F)cc2)C1=O` [A163] was over 10 µM; that for `O=C(NCc1cccc(Br)c1)[C@@]1(O)CCN(c2ccccc2)C1=O` [A1] was 0.01 to 1 µM. As for `O=C(NCc1cccc(Cl)c1F)[C@@]1(O)CCN(c2ccc(F)c(Cl)c2)C1=O` [A56], the figure is 0.01 to 1 µM; as for `O=C(NCCc1cccs1)[C@]1(O)CCN(c2cccc(Cl)c2)C1=O` [A40], 0.01 to 1 µM; as for `CCn1cc(N2CC[C@](O)(C(=O)NCc3cc(F)cc(F)c3)C2=O)cn1` [A211], 0.01 to 1 µM. For the compound `O=C(NCc1cccc(-c2nccs2)c1)[C@@]1(O)CCN(c2ccccc2)C1=O` [A36], the half-maximal inhibitory concentration (IC50) fell in the range of 1 to 10 µM.
